Some results are limits rather than exact numbers.

The test has as its target T1, human TRPV3 (Homo sapiens, UniProt Q8NET8).
T1 construct: expressed in transfected cells; host or cells: HEK293
T1 sequence (Q8NET8 1-790): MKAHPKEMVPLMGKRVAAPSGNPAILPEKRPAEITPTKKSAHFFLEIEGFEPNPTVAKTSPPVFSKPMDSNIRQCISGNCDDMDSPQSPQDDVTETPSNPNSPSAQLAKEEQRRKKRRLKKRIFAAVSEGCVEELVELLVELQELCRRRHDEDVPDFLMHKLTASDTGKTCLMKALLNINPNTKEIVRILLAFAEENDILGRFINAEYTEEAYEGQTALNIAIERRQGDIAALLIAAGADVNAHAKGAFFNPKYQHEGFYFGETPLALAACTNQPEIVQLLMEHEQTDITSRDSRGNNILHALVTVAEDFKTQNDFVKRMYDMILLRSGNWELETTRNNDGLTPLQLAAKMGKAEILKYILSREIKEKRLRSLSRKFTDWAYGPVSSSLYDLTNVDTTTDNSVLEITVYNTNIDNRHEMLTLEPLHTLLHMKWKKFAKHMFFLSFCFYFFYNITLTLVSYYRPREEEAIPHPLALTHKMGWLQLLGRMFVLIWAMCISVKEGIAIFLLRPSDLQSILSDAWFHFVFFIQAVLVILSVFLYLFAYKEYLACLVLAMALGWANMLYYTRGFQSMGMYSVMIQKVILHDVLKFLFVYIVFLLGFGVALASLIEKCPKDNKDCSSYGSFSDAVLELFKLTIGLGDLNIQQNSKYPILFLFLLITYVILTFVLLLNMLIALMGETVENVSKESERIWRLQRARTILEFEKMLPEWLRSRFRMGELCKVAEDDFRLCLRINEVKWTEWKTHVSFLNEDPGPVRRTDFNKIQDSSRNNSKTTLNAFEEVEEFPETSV
Nature of the test: Calcium flux assay (FLIPR TETRA), recombinant HEK293 cells expressing TRPV3, 2-APB response. It is filed as cell-based. Conditions: 2-APB at its EC80. How it is done: (i) In Vitro Methods-Calcium Flux Assays:
Experiments were conducted using the FLIPR TETRA®. On the day prior to the experiment, recombinant HEK293 cells that stably express human and mouse TRPV3 were removed from tissue culture flasks and plated in growth medium at 20,000 cells/well into black-walled clear-bottom 384-well BIOCOAT™ poly-D-lysine assay plates (BD Biosciences, Bedford, Mass.) using a MULTIDROP® dispenser (ThermoScientific, Waltham, Mass.). On the day of the experiment, growth medium was removed, and the no-wash FLIPR® Calcium-4 dye (λEX=470-495 nm, λEM=515-575 nm; Molecular Devices, Sunnyvale, Calif.) was added to each well using the MULTIDROP® dispenser. Cells were incubated for 90-120 minutes in the dark. The compounds were dissolved in DMSO to prepare a 10 mM stock solution. The intensity of the fluorescence was captured and digitally transferred to an interfaced PC. The peak increase in fluorescence over baseline, measured in relative fluorescence units, was calculated and expressed as the percentage of the maximal 2-APB (2-aminoethoxyldiphenyl borate) response (in the absence of compound). The concentration of 2-APB corresponds to its EC80.
In general terms: Calcium assays in cells follow changes in intracellular calcium, usually with a dye or a luminescent sensor.
As usually defined, the IC50 is the concentration at which inhibition is half-maximal. For `COc1ncnc(OC)c1C(=O)Nc1nc(C(F)(F)F)c(-c2cc(C(C)C)no2)s1` [Example 171, 4,6-dimethoxy-N-{5-[3-(propan-2-yl)-1,2-oxazol-5-yl]-4-(trifluoromethyl)-1,3-thiazol-2-yl}pyrimidine-5-carboxamide], the IC50 is 50 to 100 nM.

Turning to `COc1ncnc(SC)c1C(=O)Nc1nc(C(F)(F)F)c(-c2ccccc2C#N)s1` [Example 159, N-[5-(2-cyanophenyl)-4-(trifluoromethyl)-1,3-thiazol-2-yl]-4-methoxy-6-(methylsulfanyl)pyrimidine-5-carboxamide], the IC50 is below 50 nM.

For `CCc1sc(NC(=O)c2c(OC)ncnc2OC)nc1-c1ccccc1` [Example 26, N-(5-ethyl-4-phenyl-1,3-thiazol-2-yl)-4,6-dimethoxypyrimidine-5-carboxamide], the IC50 was in the range of 50 to 100 nM.

Take `COc1ncnc(OC)c1C(=O)Nc1nc(-c2ccc(C(F)(F)F)cn2)c(CN2CCOCC2)s1` [Example 77, 4,6-dimethoxy-N-{5-(morpholin-4-ylmethyl)-4-[5-(trifluoromethyl)pyridin-2-yl]-1,3-thiazol-2-yl}pyrimidine-5-carboxamide]: the IC50 is below 50 nM.

As for `COc1ncnc(OC)c1C(=O)Nc1nc(C(F)(F)F)c(-c2ccc(F)nc2)s1` [Example 8, N-[5-(6-fluoropyridin-3-yl)-4-(trifluoromethyl)-1,3-thiazol-2-yl]-4,6-dimethoxypyrimidine-5-carboxamide], the IC50 fell in the range of 50 to 100 nM.

Take `COc1ncnc(OC)c1C(=O)Nc1nc(/C=C/C2CC2)cs1` [Example 103, N-{4-[(E)-2-cyclopropylethenyl]-1,3-thiazol-2-yl}-4,6-dimethoxypyrimidine-5-carboxamide]: the IC50 is above 1000 nM.

As to `COc1ncnc(OC)c1C(=O)Nc1nc(/C=C/C(C)(C)C)cs1` [Example 104, N-{4-[(1E)-3,3-dimethylbut-1-en-1-yl]-1,3-thiazol-2-yl}-4,6-dimethoxypyrimidine-5-carboxamide], the IC50 was above 1000 nM.

With `COc1ncnc(OC)c1C(=O)Nc1nc(C(F)(F)F)c([S+]([O-])Cc2ccccc2)s1` (stereo not shown) [Example 112, N-(5-(benzylsulfinyl)-4-(trifluoromethyl)thiazol-2-yl)-4,6-dimethoxypyrimidine-5-carboxamide], the IC50 is above 1000 nM.

Consider `COc1ncnc(OC)c1C(=O)Nc1nc(C(F)(F)F)c(C#CCO)s1` [Example 12, N-[5-(3-hydroxyprop-1-yn-1-yl)-4-(trifluoromethyl)-1,3-thiazol-2-yl]-4,6-dimethoxypyrimidine-5-carboxamide], for which the IC50 lay within 100 to 500 nM.

For `COc1ncnc(OC)c1C(=O)Nc1nc(-c2ccc(F)cn2)cs1` [Example 91, N-[4-(5-fluoropyridin-2-yl)-1,3-thiazol-2-yl]-4,6-dimethoxypyrimidine-5-carboxamide], the half-inhibitory concentration (IC50) was 500 to 1000 nM.

As to `CO/N=C(\C)c1sc(NC(=O)c2c(OC)ncnc2OC)nc1C(F)(F)F` [Example 135, 4,6-dimethoxy-N-{5-[(1E)-N-methoxyethanimidoyl]-4-(trifluoromethyl)-1,3-thiazol-2-yl}pyrimidine-5-carboxamide], the IC50 was below 50 nM.

For the compound `COc1ncnc(OC)c1C(=O)Nc1nc(C(F)(F)F)c(Sc2ccccc2)s1` [Example 115, 4,6-dimethoxy-N-[5-phenylsulfanyl-4-(trifluoromethyl)-1,3-thiazol-2-yl]pyrimidine-5-carboxamide], the IC50 fell in the range of 50 to 100 nM.

`COc1ncnc(OC)c1C(=O)Nc1nc(-c2ccc(C(F)(F)F)cn2)c(C(C)O)s1` (single isomer, unassigned) [Example 84, N-{5-[(1S*)-1-hydroxyethyl]-4-[5-(trifluoromethyl)pyridin-2-yl]-1,3-thiazol-2-yl}-4,6-dimethoxypyrimidine-5-carboxamide]: the IC50 was 100 to 500 nM.

As for `COc1ncnc(OC)c1C(=O)Nc1nc(C(F)(F)F)c(CCC(C)(C)O)s1` [Example 20, N-[5-(3-hydroxy-3-methylbutyl)-4-(trifluoromethyl)-1,3-thiazol-2-yl]-4,6-dimethoxypyrimidine-5-carboxamide], the IC50 lay in the range of 500 to 1000 nM.

`COc1ncnc(O)c1C(=O)Nc1nc(-c2ccc(C(F)(F)F)cn2)c(C(=O)N(C)C)s1` [Example 79, N-{5-(dimethylcarbamoyl)-4-[5-(trifluoromethyl)pyridin-2-yl]-1,3-thiazol-2-yl}-4-hydroxy-6-methoxypyrimidine-5-carboxamide]: the IC50 is above 1000 nM.

On to `COc1ncnc(OC)c1C(=O)Nc1nc(C(F)(F)F)c(C(C)(O)c2ccccc2)s1` (stereo not shown) [Example 122, N-[5-(1-hydroxy-1-phenylethyl)-4-(trifluoromethyl)-1,3-thiazol-2-yl]-4,6-dimethoxypyrimidine-5-carboxamide], for which the IC50 was below 50 nM.

With `COc1ncnc(OC)c1C(=O)Nc1nc(-c2ccc(C(F)(F)F)cn2)c(/C(C)=N/O)s1` [Example 88, N-{5-[(1E)-N-hydroxyethanimidoyl]-4-[5-(trifluoromethyl)pyridin-2-yl]-1,3-thiazol-2-yl}-4,6-dimethoxypyrimidine-5-carboxamide], the IC50 is 50 to 100 nM.

`COc1ncnc(OC)c1C(=O)Nc1nc(C(F)(F)F)c(C2=CCOCC2)s1` [Example 38, N-[5-(3,6-dihydro-2H-pyran-4-yl)-4-(trifluoromethyl)-1,3-thiazol-2-yl]-4,6-dimethoxypyrimidine-5-carboxamide]: the 50% inhibitory concentration (IC50) was below 50 nM.

For `COc1ncnc(OC)c1C(=O)Nc1nc(C(F)(F)F)c(-c2ccc(OCC(F)(F)F)nc2)s1` [Example 194, 4,6-dimethoxy-N-{5-[6-(2,2,2-trifluoroethoxy)pyridin-3-yl]-4-(trifluoromethyl)-1,3-thiazol-2-yl}pyrimidine-5-carboxamide], the IC50 is 100 to 500 nM.

Consider `COc1ncnc(OC)c1C(=O)Nc1nc(C2CCC(F)(F)CC2)cs1` [Example 99, N-[4-(4,4-difluorocyclohexyl)-1,3-thiazol-2-yl]-4,6-dimethoxypyrimidine-5-carboxamide], for which the IC50 was in the range of 100 to 500 nM.

Take `COc1ncnc(OC)c1C(=O)Nc1nc(C(F)(F)F)c(CNC(C)(C)C)s1` [Example 56, N-{5-[(tert-butylamino)methyl]-4-(trifluoromethyl)-1,3-thiazol-2-yl}-4,6-dimethoxypyrimidine-5-carboxamide]: the IC50 was above 1000 nM.

`COc1ncnc(OC)c1C(=O)Nc1nc(C(F)(F)F)c(C2(F)CCOCC2)s1` [Example 118, N-[5-(4-fluorotetrahydro-2H-pyran-4-yl)-4-(trifluoromethyl)-1,3-thiazol-2-yl]-4,6-dimethoxypyrimidine-5-carboxamide]: the IC50 lay within 500 to 1000 nM.

In the case of `COc1cc(C#N)ccc1-c1sc(NC(=O)c2c(OC)ncnc2OC)nc1C(F)(F)F` [Example 43, N-[5-(4-cyano-2-methoxyphenyl)-4-(trifluoromethyl)-1,3-thiazol-2-yl]-4,6-dimethoxypyrimidine-5-carboxamide], the IC50 is below 50 nM.

As to `COc1ncnc(OC)c1C(=O)Nc1nc(C(F)(F)F)c(CN(C)C(C)(C)C)s1` [Example 55, N-[5-{[tert-butyl(methyl)amino]methyl}-4-(trifluoromethyl)-1,3-thiazol-2-yl]-4,6-dimethoxypyrimidine-5-carboxamide], the IC50 lay within 100 to 500 nM.

With `COc1ncnc(OC)c1C(=O)Nc1nc(C(F)(F)F)c(-c2cnn(C(C)C)c2)s1` [Example 174, 4,6-dimethoxy-N-{5-[1-(propan-2-yl)-1H-pyrazol-4-yl]-4-(trifluoromethyl)-1,3-thiazol-2-yl}pyrimidine-5-carboxamide], the half-maximal inhibitory concentration (IC50) is below 50 nM.

The values are drawn from patent publication US20180243298A1, “TRPV3 MODULATORS” (AbbVie Inc., priority 2015, published 2018).
